Measured values reported in US20250236599A1, “LIPID NANOPARTICLES FOR OLIGONUCLEOTIDE DELIVERY” (ZIPHIUS NV, priority 2021, published 2025).

What was measured:
[1] = saRNA loading / encapsulation efficiency, Quant-IT RiboGreen assay; type: physicochemical; conditions: LNP lipid:DOPE:Cholesterol:DMG-PEG 35:20:43.5:1.5, firefly luciferase saRNA
Method: The saRNA loading in LNP formulations was quantified using a Quant-IT RiboGreen assay (Thermo Fisher Scientific, Waltham, Massachusetts, USA) as previously described. 14 samples were diluted tenfold in 1x Tris HCL-EDTA (TE) buffer (10 mM Tris-HCL, 1 mM EDTA, pH 7.5) with or without 2% (v/v) Triton X-100 (Sigma-Aldrich, Saint Louis, Missouri, USA). Standard solutions were also prepared in 1xTE with or without 2% (v/v) Triton X-100 to account for any variation in fluorescence. The assay was performed according to the manufacturer's protocol. Samples were loaded on a black 96-well plate and analysed for fluorescence on a microplate reader (Tecan Infinite® 200 PRO) at an excitation of 485 nm and emission at 528 nm. Encapsulation efficiency was calculated between 80-100%.

[2] = LNP particle size, polydispersity index and charge by Zeta Sizer; type: physicochemical; conditions: LNP lipid:DOPE:Cholesterol:DMG-PEG 35:20:43.5:1.5, firefly luciferase saRNA; for Polydispersity Index (PI) / Z-average (nm): N/P approx. 40/1
Method: Cationic lipids, DOPE, Cholesterol and DMG-PEG lipid were solubilized in ethanol or DMSO at a molar ratio of 35:20:43.5:1.5 and a concentration of 100:25:20:25 μg/μL for C12-200 or 170:25:20:25 μg/μL for the comparator lipids. Lipid nanoparticles (LNP) were prepared by targeting an N/P ratio of approximately 40/1 with saRNA. Briefly, the firefly luciferase saRNA of approximately 9659 nucleotides was diluted to 0.5 mg/mL in 5 mM citrate buffer, pH 4.5. Microfluidic mixer (Ignite from Precision Nanosystems, California, USA) was used to mix the lipid solution with the saRNA aqueous solution at a ratio of about 1:3 (vol/vol) with total flow rates above 10 ml/min. The ethanol was then removed, and the external buffer replaced with 10 mM TRIS-HCL, PH 7.4, by dialysis. Finally, the lipid nanoparticles were filtered through a 0.2 μm pore sterile filter. Lipid nanoparticle particle size was 50-150 nm diameter and polydispersity index (PI) of 0.1-0.4 as determined by Zeta Sizer (Malvern Panalytical, UK). The charge of the formulation was also measured by Zeta Sizer and ranged between 20 to −20 mV.

[3] = Weight evolution of the animals following administration of LNPs; type: in vivo; conditions: female SWISS mice
Method: (§1) Female SWISS mice (6 weeks old) were purchased from Janvier Laboratories (Paris, France) and kept in individually ventilated cages with access to food and water ad libitum. Mice were anesthetized with isoflurane (Zoetis, Louvain-La-Neuve, Belgium) (5% for induction and 2% for maintenance) and intramuscularly injected with a total of 1 μg in 100 μL Tris-HCL (50 μL per leg) LNP-formulated luciferase saRNA (for each group n=7). The expression of the luciferase induced bioluminescence was measured via non-invasive In vivo bioluminescent imaging (In vivo Imaging System (IVIS) Lumina III, Perkin Elmer, Waltham, Massachusetts, USA), 10 minutes after subcutaneous injection of […] of D-luciferin (GoldBio, Saint Louis, Missouri, USA, #LUCK-1G) were measured in day 0 (before injection), day 1, day 3, day 5, day 7, day 10, day 15 and day 20.

[4] = test system: expression of the luciferase saRNA; assay: In vivo bioluminescent imaging after intramuscular injection of LNP-formulated luciferase saRNA; conditions: 1 μg LNP-formulated luciferase saRNA intramuscularly, female SWISS mice
Method: as §1

[5] = Day 1, 1 μg LNP-formulated saRNA intramuscularly
[6] = Day 3, 1 μg LNP-formulated saRNA intramuscularly
[7] = Day 5, 1 μg LNP-formulated saRNA intramuscularly
[8] = Day 7, 1 μg LNP-formulated saRNA intramuscularly
[9] = Day 10, 1 μg LNP-formulated saRNA intramuscularly
[10] = Day 15, 1 μg LNP-formulated saRNA intramuscularly
[11] = Day 20, 1 μg LNP-formulated saRNA intramuscularly

Row | Encapsulation (%) [1] [%] | Zetapotential (mV) [2] [mV] | Polydispersity Index (PI) [2] | Z-average (nm) [2] [nm] | Weight ([3]; Day 0) [g] | Weight [3, 5] [g] | Weight [3, 6] [g] | Weight [3, 7] [g] | Weight [3, 8] [g] | Weight [3, 9] [g] | Weight [3, 10] [g] | Weight [3, 11] [g] | SMILES | Bioluminescence expression of LNPs ([4]; Day 1) | Bioluminescence expression of LNPs ([4]; Day 3) | Bioluminescence expression of LNPs ([4]; Day 5) | Bioluminescence expression of LNPs ([4]; Day 7) | Bioluminescence expression of LNPs ([4]; Day 10) | Bioluminescence expression of LNPs ([4]; Day 15) | Bioluminescence expression of LNPs ([4]; Day 20)
1 | 99.03 | 9.07 | 0.16 | 70.96 | 26.56 | 25.99 | 27.21 | 27.59 | 27.09 | 27.17 | 29.43 | 30.11 | CCCCCCCCCCCCCCOC(=O)CCN(CCC(=O)OCCCCCCCCCCCCCC)CCN1CCN(CCN(CCC(=O)OCCCCCCCCCCCCCC)CCC(=O)OCCCCCCCCCCCCCC)CC1 [Comparator 1 (C1), reference compound] |  |  |  |  |  |  | 
2 |  |  |  |  | 28.36 | 27.19 | 29.44 | 29.17 | 29.37 | 29.39 | 31.43 | 32.46 | CCCCCCC(CCCC)C(=O)OCCCCCCN(CCCCCCOC(=O)C(CCCC)CCCCCC)CCN(CCCCCCOC(=O)C(CCCC)CCCCCC)CCN1CCN(CCN(CCCCCCOC(=O)C(CCCC)CCCCCC)CCCCCCOC(=O)C(CCCC)CCCCCC)CC1 (centres unmarked) [Compound 9-28, ((2-(4-(2-((2-(bis(6-((2-butyloctanoyl)oxy)hexyl)amino)ethyl) (6-((2-butyloctanoyl)oxy)hexyl)amino)ethyl)piperazin-1-yl)ethyl)azanediyl)bis(hexane-6,1-diyl)bis(2-butyloctanoate)] | 1.01E+08 | 8.67E+08 | 9.45E+08 | 5.65E+08 | 2.08E+06 | 8.15E+04 | 3.35E+04
3 |  |  |  |  | 27.70 | 26.17 | 28.46 | 27.66 | 28.29 | 28.27 | 29.76 | 30.90 | CCCCCCCCC(CCCCCC)C(=O)OCCCCCCN(CCCCCCOC(=O)C(CCCCCC)CCCCCCCC)CCN(CCCCCCOC(=O)C(CCCCCC)CCCCCCCC)CCN1CCN(CCN(CCCCCCOC(=O)C(CCCCCC)CCCCCCCC)CCCCCCOC(=O)C(CCCCCC)CCCCCCCC)CC1 (centres unmarked) [Compound 9-31, ((2-(4-(2-((2-(bis(6-((2-hexyldecanoyl)oxy)hexyl)amino)ethyl) (6-((2-hexyldecanoyl)oxy)hexyl)amino)ethyl)piperazin-1-yl)ethyl)azanediyl)bis (hexane-6,1-diyl)bis(2-hexyldecanoate)] | 3.10E+07 | 2.74E+08 | 5.31E+08 | 2.16E+08 | 2.22E+06 | 2.46E+05 | 2.71E+04
4 |  |  |  |  | 30.01 | 30.06 | 30.43 | 29.87 | 30.30 | 31.23 | 32.13 | 32.23 | CCCCCCCCC(CCCCCC)C(=O)OCCN(CCOC(=O)C(CCCCCC)CCCCCCCC)CCN1CCN(CCN(CCOC(=O)C(CCCCCC)CCCCCCCC)CCOC(=O)C(CCCCCC)CCCCCCCC)CC1 (centres unmarked) [Compound 9-35, ((piperazine-1,4-diylbis(ethane-2,1-diyl))bis(azanetriyl))tetrakis(ethane-2,1-diyl)tetrakis(2-hexyldecanoate)] | 8.83E+05 | 9.99E+07 | 5.92E+07 | 6.45E+07 | 5.62E+07 | 6.82E+05 | 2.44E+05
5 |  |  |  |  | 30.11 | 29.54 | 29.41 | 29.19 | 30.31 | 30.51 | 31.09 | 32.37 | CCCCCCC(CCCC)C(=O)NCCCCCCN(CCCCCCNC(=O)C(CCCC)CCCCCC)CCN(CCCCCCNC(=O)C(CCCC)CCCCCC)CCN1CCN(CCN(CCCCCCNC(=O)C(CCCC)CCCCCC)CCCCCCNC(=O)C(CCCC)CCCCCC)CC1 (centres unmarked) [Compound 9-40, N,N'-(((2-(4-(2-((2-(bis(6-(2-butyloctanamido)hexyl)amino)ethyl) (6-(2-butyloctanamido)hexyl)amino)ethyl)piperazin-1-yl)ethyl)azanediyl)bis(hexane-6,1-diyl))bis(2-butyloctanamide)] | 6.07E+07 | 6.79E+08 | 1.14E+09 | 8.88E+08 | 2.00E+07 | 1.32E+06 | 2.64E+05
6 |  |  |  |  | 29.19 | 29.19 | 29.43 | 29.21 | 30.44 | 31.06 | 31.26 | 31.77 | CCCCCCC(CCCC)C(=O)NCCCCCCN(CCCCCCNC(=O)C(CCCC)CCCCCC)CCN1CCN(CCN(CCCCCCNC(=O)C(CCCC)CCCCCC)CCCCCCNC(=O)C(CCCC)CCCCCC)CC1 (centres unmarked) [Compound 9-41, N, N', N″, N″'-(((piperazine-1,4-diylbis(ethane-2,1-diyl))bis(azanetriyl))tetrakis(hexane-6,1-diyl))tetrakis(2-butyloctanamide)] |  |  |  |  |  |  | 
7 | 97.46 | 9.59 | 0.19 | 94.03 | 28.61 | 27.17 | 28.62 | 28.98 | 28.97 | 29.23 | 30.16 | 31.23 | CCCCCCCCCCC(O)CN(CCN1CCN(CCN(CC(O)CCCCCCCCCC)CC(O)CCCCCCCCCC)CC1)CCN(CC(O)CCCCCCCCCC)CC(O)CCCCCCCCCC (centres unmarked) [Compound C12-200, 1,1′-((2-(4-(2-((2-(bis (2-hydroxydodecyl)amino)ethyl) (2-hydroxydodecyl)amino)ethyl)piperazin-1-yl)ethyl)azanediyl) bis(dodecan-2-ol), reference compound] |  |  |  |  |  |  | 
